Here are results for 3 compounds from ChEMBL document CHEMBL3046663, “Assessing the effects of three potential chemical repellents to prevent bird damage to corn seeds and seedlings” (Pest Manag Sci, 2013).

Series [1] has as its system Columba livia. As to the kind of experiment: Bird repellent activity against Columba livia f. domestica fed with compound treated maize seeds assessed as feeding deterrence activity at 1 ml/kg by aviary food choice trials. It is filed as functional, organism-based.
The subject of series [2] is Zea mays. As to the kind of experiment: Phytotoxicity against Zea mays (maize) seeds assessed as germination rate at 25 degC after 5-6 days by standard vigour method. It is filed as organism-based. The following applies: in vivo.
The test system of series [3] is Zea mays. As to the kind of experiment: Phytotoxicity against Zea mays (maize) seeds assessed as germination rate at 10 degC after 7 days by standard vigour method. It is filed as organism-based. The settings on record: in vivo, 168 h.
The subject of series [4] is Columba livia. As to the kind of experiment: Bird repellent activity against Columba livia f. domestica fed with compound treated maize seeds assessed as feeding deterrence activity at 0.085 ml/kg measured for 4 days by aviary food choice trials. It is filed as functional, organism-based.
Series [5] relates to Columba livia. The series is described as follows: Bird repellent activity against Columba livia f. domestica assessed as decrease in damage of maize seedlings grown from compound-treated seeds at 0.085 ml/kg measured in the field at 2 to 16 days after germination during field trials. It counts as functional, organism-based.
Series [6] concerns Columba livia. As to the kind of experiment: Bird repellent activity against Columba livia f. domestica assessed as decrease in damage of maize seedlings grown from compound-treated seeds at 0.085 ml/kg measured after 3 days exposure during aviary trials. It counts as functional, organism-based.
Series [7] concerns Columba livia. The series is described as follows: Bird repellent activity against Columba livia f. domestica fed with compound treated maize seeds assessed as feeding deterrence activity at 1.4 ml/kg measured for 4 days by aviary food choice trials. It is filed as functional, organism-based.
Series [8] relates to Columba livia. As to the kind of experiment: Bird repellent activity against Columba livia f. domestica assessed as decrease in damage of maize seedlings grown from compound-treated seeds at 1.4 ml/kg measured in the field at 2 to 16 days after germination during field trials. It counts as functional, organism-based.
Series [9] deals with Columba livia. The series is described as follows: Bird repellent activity against Columba livia f. domestica assessed as decrease in damage of maize seedlings grown from compound-treated seeds at 1.4 ml/kg measured after 3 days exposure during aviary trials. It counts as functional, organism-based.

Activity calls are given as the source filed them. No cut-off for these calls is given here.

Consider `O=C1c2ccccc2C(=O)c2ccccc21` [ANTHRAQUINONE], for which the result with Columba livia [1] was inactive. Further, the Activity result in the series with Zea mays [2] and in the series on Zea mays [3] was “Non-toxic” each time.
`COC(=O)c1ccccc1N` [METHYL ANTHRANILATE]: in the series on Columba livia [4], the outcome was Active. Moreover, the Activity entry with Zea mays [2] and in the series on Zea mays [3] was “Non-toxic” each time. Moreover, the inhibition entry in the series on Columba livia [5] and with Columba livia [6] was “inactive” throughout.
As to `CC(C)=C1CC[C@@H](C)CC1=O` [PULEGONE], the outcome in the series with Columba livia [7] was Active. Further, the Activity entry in the series with Zea mays [2] and in the series with Zea mays [3] was “Non-toxic” in each case. Also, the inhibition entry in the series with Columba livia [8] and with Columba livia [9] was “inactive” in each case.
